Reference: US9334498B2, “Methods and compositions for modulating MIR-204 activity” (UAB Research Foundation, priority 2012, dated 2016)
Oligonucleotides are written 5' to 3', each unit as a sugar letter and its base; * is a phosphorothioate linkage, no mark a phosphodiester; rarer units and linkages stand in square brackets, end groups in braces. Plain capitals give the bases only. {Chol} = cholesterol; m = 2'-O-methyl

Experiments:
[1] = test system: miR-204; test: Antagomir pilot studies in vivo: islet miR-204 expression; design: species or system mouse; conditions: after just one injection
Experimental: miR-204 knock down (in vitro and in vivo). We will utilize the miR204 inhibitor oligo (IN-320505-05; meridian Hairpin Inhibitor rno-miR-204) or scrambled control (IN-001005-01-05) (Dharmacon) to perform transfection experiments in INS-1 cells and primary human islets as mentioned above and described herein. This microRNA inhibitor oligonucleotide specifically binds to miR-204 and targets it for degradation. In fact, 72 h after transfection we saw a significant ˜5-fold reduction in miR-204 expression, but no effect on other microRNAs (data not shown) confirming the effectiveness and specificity of this approach. […] Therefore, after diabetes has been confirmed by blood glucose readings over 250 mg/dL on two consecutive days, these obese and diabetic male mice and their lean, non-diabetic littermates will again be divided into three treatment groups and will receive antagomir, mutant antagomir or saline injections as described for the wild-type mice. In all mice, blood glucose levels will be assessed daily (by glucometer) and serum will be collected before injection and prior to sacrifice for measurement of insulin levels (by ELISA)(17). […]

[2] = molecular target: T1, STAT3 (Rattus norvegicus, UniProt P52631); test: STAT3 inhibition in INS-1 cells, expression by qRT-PCR; format: cell-based
T1 construct: endogenous in cells; host or cells: INS-1 rat beta cells
Experimental: FIG. 18. Effects of TXNIP and diabetes on beta cell miR-204 expression. Expression of miR-204 was assessed by qRT-PCR in (A) INS-1 cells overexpressing TXNIP (INS-TXNIP) and control (INS-LacZ) cells, (B) primary islets of TXNIP-deficient HcB-19 and C3H control mice, and (C) primary islets of beta-cell-specific TXNIP knockout bTKO and lox/lox control mice. (D) TXNIP effects on STAT3 activation were determined by immunoblotting for phospho-STAT3 (p-STAT3) and total STAT3 in INS-TXNIP and control INS-LacZ cells. (E) To determine the role of STAT3 in miR-204 expression, INS-1 cells were incubated with the STAT3 inhibitor STATTIC (2 μM for 48 hr) or vehicle (DMSO) and the expression of miR-204 was detected by qRT-PCR. (F) To assess the effect of diabetes on miR-204 expression, primary islets of 10-week old, male, diabetic ob/ob or lean control mice were analyzed by qRT-PCR. Bars represent means±SEM; n=3-5 independent experiments.
miR-204 is encoded within intron 6 of the TRPM3 gene (transient receptor potential melastatin 3, a cation-selective channel) and is transcribed in the same direction as TRPM3^30. Since miR-204 and TRPM3 are therefore sharing the same promoter, we deduced that, if TXNIP were to regulate miR-204 expression at the transcriptional level, TRPM3 would be co-regulated in parallel. […]

T1 sequence (P52631 whole entry): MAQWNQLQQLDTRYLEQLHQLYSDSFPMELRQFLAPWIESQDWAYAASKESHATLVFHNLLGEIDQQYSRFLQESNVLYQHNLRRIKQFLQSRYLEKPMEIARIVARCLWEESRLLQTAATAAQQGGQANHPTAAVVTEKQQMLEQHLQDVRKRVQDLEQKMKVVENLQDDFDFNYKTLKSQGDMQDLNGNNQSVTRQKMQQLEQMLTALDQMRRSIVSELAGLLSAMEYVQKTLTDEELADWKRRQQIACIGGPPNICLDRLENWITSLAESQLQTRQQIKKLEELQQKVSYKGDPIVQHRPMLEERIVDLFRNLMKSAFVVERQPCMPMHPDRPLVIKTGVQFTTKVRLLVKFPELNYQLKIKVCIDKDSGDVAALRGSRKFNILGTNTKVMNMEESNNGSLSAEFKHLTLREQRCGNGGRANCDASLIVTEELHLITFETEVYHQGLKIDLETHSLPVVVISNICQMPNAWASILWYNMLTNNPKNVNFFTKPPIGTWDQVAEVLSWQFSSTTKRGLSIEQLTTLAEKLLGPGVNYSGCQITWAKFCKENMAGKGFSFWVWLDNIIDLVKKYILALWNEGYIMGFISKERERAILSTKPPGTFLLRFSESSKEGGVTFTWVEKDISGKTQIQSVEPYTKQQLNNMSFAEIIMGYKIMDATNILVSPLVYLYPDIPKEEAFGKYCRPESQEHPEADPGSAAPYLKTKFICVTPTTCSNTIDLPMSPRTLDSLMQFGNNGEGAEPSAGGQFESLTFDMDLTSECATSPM

Molecule | reduction in islet miR-204 expression [1] | TRPM3 (host gene) expression [2] | miR-204 expression ([2]; 2 μM for 48 hr vs DMSO)
5′-mA(*)mG(*)mGmCmAmUmAmGmGmAmUmGmAmCmAmAmAmG mG(*)mG(*)mA(*) mA(*)-3Chl (antisense mA*mG*mGmCmAmUmAmGmGmAmUmGmAmCmAmAmAmGmG*mG*mA*mA*{Chol}) [miR-204 antagomir] | ~2 fold | – | –
O=[N+]([O-])c1ccc2c(c1)S(=O)(=O)C=C2 [STATTIC] | – | significantly induced | significantly induced
